From the NIST ThermoML archive (doi:10.1021/je0302295)
Numbers after ± are expanded uncertainties.

Key:
[1] = activity coefficient (dimensionless); of the first substance listed, at infinite dilution; xn = mol fraction of the nth substance listed; details: Liquid, Static method, x1 = 0
[2] = 293.15 K, 101.33 kPa, Liquid
[3] = refractive index (Na D-line) (dimensionless); details: 293.15 K; 101.33 kPa; Liquid; Standard Abbe refractometry

Structure (SMILES)	activity coefficient ([1]; 303.15 K)	activity coefficient ([1]; 313.15 K)	activity coefficient ([1]; 323.15 K)	activity coefficient ([1]; 333.15 K)	activity coefficient ([1]; 343.15 K)	mass density ([2]; Vibrating tube method)	refractive index [3]	mass density [2]
CCCCCCC [heptane]						683.79 ± 0.21 kg/m3	1.3876 ± 0.0007	
CCCCO [butan-1-ol] + CCCCCCC	31.3 ± 3	24.5 ± 1	19.3 ± 1	14.6 ± 0.8	11.6 ± 0.4			
CCCCCCCC [octane]						702.76 ± 0.2 kg/m3	1.3973 ± 0.0007	

Other lines, results leading:

activity coefficient ([1]; 303.15 K)	activity coefficient ([1]; 313.15 K)	activity coefficient ([1]; 323.15 K)	activity coefficient ([1]; 333.15 K)	activity coefficient ([1]; 343.15 K)	mass density ([2]; Vibrating tube method)	refractive index [3]	mass density [2]	Structure (SMILES)
34.2 ± 1.8	26.5 ± 1.4	20.5 ± 0.5	16.2 ± 0.3	12.9 ± 0.2				CCCO [propan-1-ol] + CCCCCCCC
						1.3855 ± 0.0007	803.55 ± 0.29 kg/m3	CCCO [propan-1-ol]
36.2 ± 1.1	27.2 ± 0.7	21.2 ± 1	15.8 ± 0.4	12.5 ± 0.2				CCCO [propan-1-ol] + CCCCCCC
						1.3992 ± 0.0007	809.68 ± 0.29 kg/m3	CCCCO [butan-1-ol]
32.1 ± 1.6	23.9 ± 0.8	18.4 ± 0.4	14.5 ± 0.4	11.2 ± 0.8				CCCCO [butan-1-ol] + CCCCCCCC
